Laboratory results taken from patent US20260240820A1, “METHOD FOR CONTROLLING MEMBRANE POTENTIAL-DEPENDENT ION CHANNEL THROUGH TYPE I TASTE RECEPTORS (T1RS)” (ION CHAT RESEARCH CORPORATE, priority 2022, published 2026).
“Also recorded” adds a separate entry of the source.

Assays:
[1] = tested on: Nav1.5; test: Patch-clamp (voltage clamp) recording of VGSC current in HEK cells stably expressing Nav1.5
[2] = tested on: endogenous T1R GPCR of HEK cells; test: Intracellular calcium (Cal-520) in HEK cells stably expressing Nav1.1 with endogenous T1R GPCR; assay type: cell-based, human; conditions: 10 nM then 20 nM for Aβ1-40 and Aβ1-42
Method: Specifically, experiments were conducted as follows using HEK cells stably expressing Nav1.1 (FIG. 45). The calcium-sensitive reagent (Cal-520, AAT Bioquest) was incubated at 37° C. for 60 minutes, followed by incubation at room temperature for 30 minutes, and then changes in intracellular calcium were measured using a fluorescence microscope. […] Initially, 10 nM, followed by 20 nM of Aβ1-40 was applied after 5 minutes (arrow). […] A total of 6 cell groups from two independent experiments were measured, averaged by the maximum fluorescence response value, and the mean and standard error (stderr) were calculated and plotted. […] 10 nM, followed by 20 nM of Aβ1-42 was applied after 5 minutes (arrow). […] A total of 12 cell groups from two independent experiments were measured, averaged by the minimum fluorescence response value, and the mean and standard error (stderr) were calculated and plotted. Similar to the experimental results using the patch-clamp method when Aβ peptide was applied to Nav1.5, it was confirmed from intracellular calcium measurements that the effects of Aβ1-40 and Aβ1-42 were different.

[3] = tested on: Nav1.1; test: Patch-clamp recording of VGSC current in HEK (Nav1.1) cells; assay type: cell-based, human
Description: (§1) The cells used in the previous (18-1) experiment were cardiac-type VGSC cells. In this experiment, HEK (Nav1.1) and HEK (Nav1.6) cells, which are considered neuronal VGSC cells, were created. The effects of four peptides—Aβ25-35, Aβ1-38, Aβ1-40, and Aβ1-42—were examined using the same experimental protocol as in (18-1).

[4] = tested on: Nav1.5 in T1R3-silenced HEK cells; test: VGSC current in HEK Nav1.5 cells with silenced T1R3; assay type: cell-based, human
Description: The miRNAs Oligo (Thermofisher) used for silencing were annealed to form double-stranded DNA, which was then linked to the miR RNAi Expression Vector using T4 DNA ligase to create the knockdown vector. Specifically, the procedure followed the miR RNAi Expression Vector Kit manual (BLOCK-i™ Pol II miR RNAi Expression Vector Kit with EmGFP (Catalog number: K493600)).
Since Aβ25-35 peptide produced similar effects (enhancing VGSC activity, lowering the excitability threshold) as glutamine, it was considered that Aβ25-35 peptide might also act on T1R2/T1R3 receptors like glutamine. Therefore, in this implementation example, we used HEK-Nav1.5 cells with silenced T1R3 and compared the effect of Aβ25-35 peptide on VGSC with that in control HEK-Nav1.5 cells.
To strengthen these findings, we conducted similar experiments using HEK Nav1.5 cells in which T1R3 expression was silenced (FIG. 22). We measured VGSC currents in T1R3-silenced HEK Nav1.5 cells, applying stimuli every 8 seconds.

[5] = tested on: Nav1.6; test: Patch-clamp recording of VGSC current in HEK (Nav1.6) cells; assay type: cell-based, human
Description: as §1, with “(18-1). […]” for “(18-1).”

With “Aβ1-38: amyloid β peptide (Peptide Institute), Sequence No. 2” the “Effect on VGSC inactivation” value [1] was “delayed inactivation effect”, the “Shift of steady-state inactivation (S-S) curve of VGSC” value [1] was “shifted to the right; also recorded: shifting to the depolarizing side” and the “VGSC current from prepulse/holding potential −80 mV” value [1] was “enhancing currents; also recorded: significantly amplified”. For the same substance, the “VGSC current from prepulse/holding potential −120 mV” value [1] was “decreased; also recorded: slightly decreased”, the “Change in intracellular calcium” value [2] was “an increase in intracellular calcium was observed” and the “Effect on VGSC current” value [3] was “VGSC enhancement”. The “Effect on VGSC in T1R3-silenced cells” value [4] was “is lost” and the “Effect on VGSC current” value [5] was “VGSC enhancement”.
